Active and inactive are the calls of the source.
Legend:
Estrogen receptor = Estrogen receptor (Homo sapiens, UniProt P03372);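 further: potency for inhibiting coactivator peptide recruitment to the receptor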
Estrogen receptor beta = Estrogen receptor beta (Homo sapiens, UniProt Q92731);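 further: recombinant ER-beta bound to coactivator SRC1 peptide in presence of estradiol agonist; inhibitors block coactivator peptide binding and lower the FRET signal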
NADPH oxidase 1 = NADPH oxidase 1 (Homo sapiens, UniProt Q9Y5S8); assay: Luminescence-based cell-based dose response assay to identify inhibitors of NADPH oxidase 1 (NOX1).; assay type: functional
Sequence of NADPH oxidase 1 (Q9Y5S8 whole entry): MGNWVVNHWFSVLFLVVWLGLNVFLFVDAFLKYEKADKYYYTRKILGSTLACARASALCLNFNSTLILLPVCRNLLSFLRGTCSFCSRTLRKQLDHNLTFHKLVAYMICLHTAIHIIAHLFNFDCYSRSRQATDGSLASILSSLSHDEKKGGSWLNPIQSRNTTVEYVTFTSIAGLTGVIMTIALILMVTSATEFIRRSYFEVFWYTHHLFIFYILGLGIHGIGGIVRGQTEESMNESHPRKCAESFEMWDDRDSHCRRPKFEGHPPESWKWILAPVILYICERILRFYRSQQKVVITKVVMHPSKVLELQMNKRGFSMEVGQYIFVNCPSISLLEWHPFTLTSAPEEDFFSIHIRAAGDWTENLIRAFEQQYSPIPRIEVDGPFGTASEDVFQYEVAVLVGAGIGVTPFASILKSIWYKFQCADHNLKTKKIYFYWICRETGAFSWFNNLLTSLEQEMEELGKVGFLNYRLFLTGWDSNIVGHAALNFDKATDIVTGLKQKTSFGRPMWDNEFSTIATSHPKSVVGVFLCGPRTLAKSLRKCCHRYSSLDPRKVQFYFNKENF

[1] = target: Sphingosine 1-phosphate receptor 2 (Homo sapiens, UniProt O95136); assay: Dose Response Cell Based Assay for Agonists of the S1P2 Receptor. [Related pubchem assays: 729, 736, 843 ]; assay type: functional
Sequence of Sphingosine 1-phosphate receptor 2 (O95136 whole entry): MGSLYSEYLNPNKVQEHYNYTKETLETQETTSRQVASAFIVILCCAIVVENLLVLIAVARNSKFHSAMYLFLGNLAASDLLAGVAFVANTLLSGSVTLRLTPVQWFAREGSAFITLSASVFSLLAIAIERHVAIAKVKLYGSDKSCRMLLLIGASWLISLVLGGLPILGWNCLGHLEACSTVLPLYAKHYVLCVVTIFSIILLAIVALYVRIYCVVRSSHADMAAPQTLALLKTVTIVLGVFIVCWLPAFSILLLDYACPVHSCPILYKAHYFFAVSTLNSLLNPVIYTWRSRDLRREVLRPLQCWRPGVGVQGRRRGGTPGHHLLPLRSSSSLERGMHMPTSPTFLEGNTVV

[2] = THP-1 cell cytotoxicity, dose response, cytotoxicity control for Vif-APOBEC3G degradation inhibitor project, THP-1 cells (AID 1117359); assay type: functional; conditions: Human immunodeficiency virus 1, THP-1
[3] = target: T1, Short transient receptor potential channel 4 (Mus musculus, UniProt Q9QUQ5); assay: mouse TRPC4 channel inhibitors, dose response, cell-based, HEK293 TRPC4/mu-opioid, Fluo-4 calcium (AID 434942); assay type: functional;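 further: potency of inhibitors blocking the TRPC4 calcium response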
T1 sequence (Q9QUQ5 whole entry): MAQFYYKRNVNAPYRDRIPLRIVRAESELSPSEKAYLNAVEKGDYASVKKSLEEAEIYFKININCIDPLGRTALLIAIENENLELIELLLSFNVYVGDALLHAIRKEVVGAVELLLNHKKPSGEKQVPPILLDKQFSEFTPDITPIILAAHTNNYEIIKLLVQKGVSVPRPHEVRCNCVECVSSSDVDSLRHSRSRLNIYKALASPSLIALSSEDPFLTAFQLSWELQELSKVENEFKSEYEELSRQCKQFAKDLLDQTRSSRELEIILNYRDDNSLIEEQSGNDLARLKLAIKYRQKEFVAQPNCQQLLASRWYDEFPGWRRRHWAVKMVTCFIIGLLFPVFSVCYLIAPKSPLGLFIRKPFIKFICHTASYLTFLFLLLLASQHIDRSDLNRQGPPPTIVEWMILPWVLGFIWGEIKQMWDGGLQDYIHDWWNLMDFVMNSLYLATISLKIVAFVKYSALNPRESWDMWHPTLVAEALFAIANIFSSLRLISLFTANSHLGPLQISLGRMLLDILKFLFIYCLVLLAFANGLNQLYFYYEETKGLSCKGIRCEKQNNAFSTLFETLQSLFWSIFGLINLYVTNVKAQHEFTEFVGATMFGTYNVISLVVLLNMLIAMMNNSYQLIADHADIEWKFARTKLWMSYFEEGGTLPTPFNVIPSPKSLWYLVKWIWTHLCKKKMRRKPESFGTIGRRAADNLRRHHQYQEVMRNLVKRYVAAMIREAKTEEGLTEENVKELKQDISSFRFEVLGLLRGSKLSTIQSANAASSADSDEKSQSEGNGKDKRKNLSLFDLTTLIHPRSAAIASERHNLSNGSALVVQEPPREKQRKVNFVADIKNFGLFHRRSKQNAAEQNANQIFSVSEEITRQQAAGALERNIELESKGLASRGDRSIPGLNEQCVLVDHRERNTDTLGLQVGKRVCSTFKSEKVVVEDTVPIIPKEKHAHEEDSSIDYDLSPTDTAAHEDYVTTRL

[4] = Vero cell cytotoxicity, dose response, cytotoxicity control for Vif-APOBEC3G degradation inhibitor project, Vero cells (AID 1117358); assay type: functional; conditions: Human immunodeficiency virus 1, Vero
[5] = target: T2, RNA-binding protein pos-1 (Caenorhabditis elegans, UniProt G5EF15); assay: inhibitors of POS-1/mex-3 RNA binding, dose response, biochemical, fluorescence polarization (AID 1964);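 further: purified POS-1 fused to maltose binding protein made in E. coli; potency of compounds blocking POS-1 binding to fluorescent RNA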
T2 sequence (G5EF15 whole entry): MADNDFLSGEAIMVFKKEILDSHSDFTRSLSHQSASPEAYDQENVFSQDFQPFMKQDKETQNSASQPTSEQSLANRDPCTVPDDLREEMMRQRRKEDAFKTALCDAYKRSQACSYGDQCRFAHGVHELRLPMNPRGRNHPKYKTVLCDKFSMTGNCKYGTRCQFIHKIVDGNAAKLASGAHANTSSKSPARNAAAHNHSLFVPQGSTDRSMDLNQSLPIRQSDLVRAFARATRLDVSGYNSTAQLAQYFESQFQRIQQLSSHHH

[6] = M. tuberculosis H37Rv growth inhibitors, H37Rv strain (AID 1626); assay type: functional
[7] = target: T3, Zinc finger protein mex-5 (Caenorhabditis elegans, UniProt Q9XUB2); assay: MEX-5/TCR-2 RNA interaction inhibitors, dose response, biochemical, C. elegans, fluorescence polarization (AID 1960)
T3 sequence (Q9XUB2 whole entry): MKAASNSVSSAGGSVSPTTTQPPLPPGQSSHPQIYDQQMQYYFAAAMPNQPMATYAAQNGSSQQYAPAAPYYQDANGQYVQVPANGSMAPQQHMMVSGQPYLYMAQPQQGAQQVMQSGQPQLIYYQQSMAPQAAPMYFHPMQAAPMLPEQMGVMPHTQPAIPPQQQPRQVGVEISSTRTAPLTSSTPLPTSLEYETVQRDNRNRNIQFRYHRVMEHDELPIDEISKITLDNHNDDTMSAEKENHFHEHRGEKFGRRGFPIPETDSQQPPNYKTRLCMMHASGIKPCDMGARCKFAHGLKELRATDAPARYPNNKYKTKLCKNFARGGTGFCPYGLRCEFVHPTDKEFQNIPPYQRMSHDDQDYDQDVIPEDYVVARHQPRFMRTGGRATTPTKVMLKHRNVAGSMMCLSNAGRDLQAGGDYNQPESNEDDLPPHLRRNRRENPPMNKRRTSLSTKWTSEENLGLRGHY

[8] = target: Voltage-dependent T-type calcium channel subunit alpha-1H (Homo sapiens, UniProt O95180); assay type: functional;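 further: channel activity triggered by adding a high calcium stimulation buffer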
Ion channel NompC = Ion channel NompC (Danio rerio, UniProt Q7T1G6); assay: Fluorescence counterscreen assay for TRPML3 agonists: dose response cell-based high-throughput screening assay to identify agonists of the transient receptor potential channel N1 (TRPN1). [Related pubchem assays: 1526, 1424, 1448 ]; assay type: functional
Sequence of Ion channel NompC (Q7T1G6 whole entry): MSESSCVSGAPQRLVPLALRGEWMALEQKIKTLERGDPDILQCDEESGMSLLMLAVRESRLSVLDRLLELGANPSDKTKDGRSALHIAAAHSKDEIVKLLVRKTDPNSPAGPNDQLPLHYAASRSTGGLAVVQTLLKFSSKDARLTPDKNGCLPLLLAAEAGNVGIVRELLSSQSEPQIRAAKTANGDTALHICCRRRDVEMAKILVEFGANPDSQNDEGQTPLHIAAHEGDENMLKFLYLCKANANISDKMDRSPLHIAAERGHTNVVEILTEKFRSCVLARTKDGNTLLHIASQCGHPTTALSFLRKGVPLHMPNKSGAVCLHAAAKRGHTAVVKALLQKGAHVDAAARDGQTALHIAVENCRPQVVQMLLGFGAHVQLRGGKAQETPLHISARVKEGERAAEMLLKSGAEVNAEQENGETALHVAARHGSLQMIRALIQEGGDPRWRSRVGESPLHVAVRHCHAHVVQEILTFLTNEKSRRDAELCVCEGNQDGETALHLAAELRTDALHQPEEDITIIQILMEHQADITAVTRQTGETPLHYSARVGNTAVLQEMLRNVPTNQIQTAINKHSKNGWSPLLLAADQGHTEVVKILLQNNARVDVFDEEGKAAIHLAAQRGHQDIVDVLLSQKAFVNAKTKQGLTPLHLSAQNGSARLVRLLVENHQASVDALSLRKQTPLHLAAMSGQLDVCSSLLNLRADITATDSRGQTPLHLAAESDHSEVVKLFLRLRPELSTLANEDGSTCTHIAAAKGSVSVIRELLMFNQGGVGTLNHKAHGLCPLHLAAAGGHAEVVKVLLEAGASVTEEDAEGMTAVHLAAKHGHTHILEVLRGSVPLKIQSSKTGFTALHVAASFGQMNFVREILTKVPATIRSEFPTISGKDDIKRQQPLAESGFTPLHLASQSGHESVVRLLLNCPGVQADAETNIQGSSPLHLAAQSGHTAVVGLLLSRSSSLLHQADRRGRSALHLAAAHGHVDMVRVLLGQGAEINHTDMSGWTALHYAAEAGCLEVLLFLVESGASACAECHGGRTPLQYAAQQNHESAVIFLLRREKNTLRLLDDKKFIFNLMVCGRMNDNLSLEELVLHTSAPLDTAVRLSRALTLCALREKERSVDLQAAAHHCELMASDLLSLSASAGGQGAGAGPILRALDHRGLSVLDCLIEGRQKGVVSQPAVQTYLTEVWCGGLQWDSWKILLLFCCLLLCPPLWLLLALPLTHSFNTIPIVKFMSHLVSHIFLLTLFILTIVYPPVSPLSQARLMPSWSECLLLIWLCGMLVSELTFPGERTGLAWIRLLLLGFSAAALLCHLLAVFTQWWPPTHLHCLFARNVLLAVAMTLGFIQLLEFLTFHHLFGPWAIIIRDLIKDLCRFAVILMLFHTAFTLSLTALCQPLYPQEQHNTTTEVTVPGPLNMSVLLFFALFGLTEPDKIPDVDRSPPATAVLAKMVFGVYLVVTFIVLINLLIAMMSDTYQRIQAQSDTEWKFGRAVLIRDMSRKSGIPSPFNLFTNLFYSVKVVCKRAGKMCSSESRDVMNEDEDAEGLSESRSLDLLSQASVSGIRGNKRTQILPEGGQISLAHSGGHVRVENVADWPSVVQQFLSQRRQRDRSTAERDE

Mucolipin-3 = Mucolipin-3 (Homo sapiens, UniProt Q8TDD5); assay: Dose response cell-based high-throughput screening assay for agonists of the transient receptor potential channel ML3 (TRPML3). [Related pubchem assays: 1526, 1424, 1448 ]; assay type: functional
[9] = target: T4, Calpain-2 catalytic subunit (Sus scrofa, UniProt P43367); assay: pig calpain II inhibitor potency, dose response, biochemical, fluorogenic peptide substrate (AID 1420); assay type: functional
T4 sequence (P43367 whole entry): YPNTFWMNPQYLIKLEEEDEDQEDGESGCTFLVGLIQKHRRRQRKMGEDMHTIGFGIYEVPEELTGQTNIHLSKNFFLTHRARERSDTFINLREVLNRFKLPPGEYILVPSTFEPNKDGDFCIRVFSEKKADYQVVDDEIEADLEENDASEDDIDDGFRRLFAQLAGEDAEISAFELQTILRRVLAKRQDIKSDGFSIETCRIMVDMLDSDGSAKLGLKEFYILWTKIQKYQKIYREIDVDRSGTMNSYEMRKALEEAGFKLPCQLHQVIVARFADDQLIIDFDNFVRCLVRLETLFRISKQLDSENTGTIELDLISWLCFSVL

[10] = target: Lytic switch protein BZLF1 (Epstein-Barr virus (strain B95-8) (HHV-4) (Human herpesvirus 4), UniProt P03206); assay: EBV ZTA inhibitors, dose response, counter-screen for EBNA-1 inhibitor project, biochemical, fluorescence polarization, Epstein-Barr virus, 1536-well (AID 2377); design: species or system human gammaherpesvirus 4;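 further: fluorescence polarization of Cy5-labelled ZRE DNA probe bound by purified Zta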
Sequence of Lytic switch protein BZLF1 (P03206 whole entry): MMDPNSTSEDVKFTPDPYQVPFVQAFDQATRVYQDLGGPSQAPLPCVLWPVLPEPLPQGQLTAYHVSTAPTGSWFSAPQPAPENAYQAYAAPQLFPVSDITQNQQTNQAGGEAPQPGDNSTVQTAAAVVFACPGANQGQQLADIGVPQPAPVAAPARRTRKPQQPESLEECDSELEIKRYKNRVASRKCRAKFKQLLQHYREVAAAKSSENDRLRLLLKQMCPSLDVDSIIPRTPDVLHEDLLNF

[11] = target: Epstein-Barr nuclear antigen 1 (Epstein-Barr virus (strain B95-8) (HHV-4) (Human herpesvirus 4), UniProt P03211); assay: EBNA-1 inhibitors, dose response, biochemical, fluorescence polarization, 1536-well (AID 2381); design: species or system human gammaherpesvirus 4;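 further: fluorescence polarization of a Cy5 DNA probe bound by EBNA-1 protein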
[12] = Luminescence Cell-Based Dose Response HTS to Identify Inhibitors of 5'UTR Stem-Loop Driven Prion Protein mRNA Translation in H4 Neuroglioblastoma Cells. [Related pubchem assays: 1827 (Project Summary), 1813 (Primary HTS)]; assay type: functional
[13] = target: T5, Serine/threonine-protein phosphatase (Candida dubliniensis (strain CD36 / CBS 7987 / NCPF 3949 / NRRLY-17841) (Yeast), UniProt B9W6M3); assay: calcineurin pathway inhibitors in yeast reporter, dose response, S. cerevisiae, CDRE-lacZ, luminescence, secondary (AID 2388); assay type: functional, cell-based;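 further: yeast reporter cells carrying a calcineurin-responsive lacZ construct stimulated with calcium chloride; luminescent beta-galactosidase reporter signal in whole cells rather than isolated phosphatase activity; potency for inhibition where a drop in reporter signal means calcineurin blockade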
T5 sequence (B9W6M3 whole entry): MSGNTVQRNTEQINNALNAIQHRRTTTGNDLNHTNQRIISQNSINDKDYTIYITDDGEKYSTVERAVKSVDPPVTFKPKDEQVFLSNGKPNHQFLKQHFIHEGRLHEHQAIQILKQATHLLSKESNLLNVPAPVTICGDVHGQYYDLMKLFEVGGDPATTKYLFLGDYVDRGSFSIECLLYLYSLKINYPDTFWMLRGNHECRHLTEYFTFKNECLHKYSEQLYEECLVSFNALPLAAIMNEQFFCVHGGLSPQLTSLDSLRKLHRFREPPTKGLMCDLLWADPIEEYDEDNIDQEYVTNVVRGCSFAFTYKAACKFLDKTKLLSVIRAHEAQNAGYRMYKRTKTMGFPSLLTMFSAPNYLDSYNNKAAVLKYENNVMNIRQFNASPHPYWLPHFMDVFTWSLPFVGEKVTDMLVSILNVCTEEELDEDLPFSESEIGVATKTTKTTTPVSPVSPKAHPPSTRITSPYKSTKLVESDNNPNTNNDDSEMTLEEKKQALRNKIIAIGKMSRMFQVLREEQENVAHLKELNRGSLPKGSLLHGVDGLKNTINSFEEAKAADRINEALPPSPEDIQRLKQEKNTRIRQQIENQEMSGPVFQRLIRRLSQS

[14] = inhibitors of SNCA 5'UTR-driven reporter translation, confirmation, H4 neuroglioma cells, luminescence (AID 1988); assay type: functional, cell-based
[15] = target: ATP-dependent molecular chaperone HSP82 (Candida albicans (strain WO-1) (Yeast), UniProt C4YTQ8); assay: loss of DOC-induced GRE-beta-galactosidase reporter signal, dose response, Hsp90 inhibitor project, S. cerevisiae, luminescence (AID 2400); assay type: functional, cell-based;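 further: beta-galactosidase luminescence from glucocorticoid response element reporter as proxy for Hsp90 function; inhibitor potency where signal loss means Hsp90 inhibition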
Sequence of ATP-dependent molecular chaperone HSP82 (C4YTQ8 whole entry): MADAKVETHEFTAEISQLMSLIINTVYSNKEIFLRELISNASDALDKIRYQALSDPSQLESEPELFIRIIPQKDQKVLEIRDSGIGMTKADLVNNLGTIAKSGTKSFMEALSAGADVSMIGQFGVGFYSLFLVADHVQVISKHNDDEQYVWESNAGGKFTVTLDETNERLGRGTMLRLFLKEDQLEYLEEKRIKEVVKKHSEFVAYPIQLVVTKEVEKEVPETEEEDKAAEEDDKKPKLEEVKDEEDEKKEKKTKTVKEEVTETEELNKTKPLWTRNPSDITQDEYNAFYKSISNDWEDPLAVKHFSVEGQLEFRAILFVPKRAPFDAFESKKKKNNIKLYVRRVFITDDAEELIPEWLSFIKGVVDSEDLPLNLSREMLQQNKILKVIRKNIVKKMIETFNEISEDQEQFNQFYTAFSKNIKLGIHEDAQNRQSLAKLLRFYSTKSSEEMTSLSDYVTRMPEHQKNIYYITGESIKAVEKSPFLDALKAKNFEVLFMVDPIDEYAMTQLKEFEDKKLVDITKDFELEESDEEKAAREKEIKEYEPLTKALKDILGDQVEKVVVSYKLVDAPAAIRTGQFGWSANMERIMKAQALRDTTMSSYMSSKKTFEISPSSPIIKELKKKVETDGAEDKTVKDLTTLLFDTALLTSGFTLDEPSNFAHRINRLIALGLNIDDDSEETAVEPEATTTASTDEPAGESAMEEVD

[16] = C. albicans growth with fluconazole, confirmation, fluorescence, retest (AID 2467); assay type: functional, cell-based
[17] = inhibitors of intracellular T. cruzi replication, confirmation, NIH3T3 host cells, beta-gal luminescence (AID 2044); assay type: functional, cell-based;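 further: intracellular parasites grown in NIH/3T3 mouse fibroblasts as host cells; luminescent beta-galactosidase reporter signal from transgenic T. cruzi replicating inside host cells; inhibitors lower the luminescence signal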
[18] = NIH-3T3 fibroblast cytotoxicity, dose response, cytotoxicity control, cell-based, fluorescence, Alamar Blue, secondary assay (AID 2327); assay type: functional;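 further: NIH-3T3 mouse fibroblasts cultured with fluconazole at 8 µg/mL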
[19] = inhibitors of firefly luciferase expression or activity, dose response, H4 neuroglioma cells, luminescence (AID 1990); assay type: functional, cell-based
[20] = cytotoxicity toward NIH3T3 fibroblasts, dose response, counter-screen, cell-based, ATP luminescence, mouse fibroblasts (AID 2010); assay type: functional;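 further: cells exposed to compound for about 90 hours before reading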
[21] = P. falciparum 3D7-ScDHODH growth inhibitors, dose response, SYBR Green, dry powder samples (AID 1159570); assay type: functional, cell-based;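 further: parasite growth measured after 72 hours of compound exposure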
[22] = P. falciparum ATP4 D1247Y mutant growth inhibitors, dose response, NITD609-resistant line, SYBR Green, dry powder (AID 1159571); assay type: functional, cell-based;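 further: parasites synchronized at ring stage by sorbitol before testing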
[23] = P. falciparum Dd2 growth inhibitors, dose response, SYBR Green, cherry-picked samples (AID 1159567); assay type: functional, cell-based
[24] = P. falciparum Dd2 growth inhibitors, dose response, SYBR Green, dry powder samples (AID 1159566); assay type: functional, cell-based;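 further: potency for growth inhibition with lower SYBR green DNA signal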
[25] = HepG2 cell cytotoxicity, dose response, cytotoxicity control, plate reader, dry powder samples (AID 1159569); assay type: functional, cell-based;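 further: inhibitor potency with signal falling toward the positive control level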

Sequence of Estrogen receptor (P03372 whole entry): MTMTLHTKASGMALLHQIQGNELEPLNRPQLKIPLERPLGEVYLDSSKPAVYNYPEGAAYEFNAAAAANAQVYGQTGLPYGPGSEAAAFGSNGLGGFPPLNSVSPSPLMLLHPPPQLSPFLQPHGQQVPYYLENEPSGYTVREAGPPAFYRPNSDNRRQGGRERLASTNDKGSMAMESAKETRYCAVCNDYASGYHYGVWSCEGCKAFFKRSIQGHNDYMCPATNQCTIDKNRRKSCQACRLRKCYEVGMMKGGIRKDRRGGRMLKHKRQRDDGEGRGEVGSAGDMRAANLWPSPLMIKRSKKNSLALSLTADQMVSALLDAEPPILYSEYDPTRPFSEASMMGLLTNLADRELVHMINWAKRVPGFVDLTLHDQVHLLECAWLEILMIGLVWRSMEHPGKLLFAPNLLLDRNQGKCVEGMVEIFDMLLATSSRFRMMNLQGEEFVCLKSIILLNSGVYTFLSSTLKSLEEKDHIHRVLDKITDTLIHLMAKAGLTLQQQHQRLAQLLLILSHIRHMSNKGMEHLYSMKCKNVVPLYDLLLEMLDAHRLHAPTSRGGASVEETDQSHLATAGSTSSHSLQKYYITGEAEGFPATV
Sequence of Estrogen receptor beta (Q92731 whole entry): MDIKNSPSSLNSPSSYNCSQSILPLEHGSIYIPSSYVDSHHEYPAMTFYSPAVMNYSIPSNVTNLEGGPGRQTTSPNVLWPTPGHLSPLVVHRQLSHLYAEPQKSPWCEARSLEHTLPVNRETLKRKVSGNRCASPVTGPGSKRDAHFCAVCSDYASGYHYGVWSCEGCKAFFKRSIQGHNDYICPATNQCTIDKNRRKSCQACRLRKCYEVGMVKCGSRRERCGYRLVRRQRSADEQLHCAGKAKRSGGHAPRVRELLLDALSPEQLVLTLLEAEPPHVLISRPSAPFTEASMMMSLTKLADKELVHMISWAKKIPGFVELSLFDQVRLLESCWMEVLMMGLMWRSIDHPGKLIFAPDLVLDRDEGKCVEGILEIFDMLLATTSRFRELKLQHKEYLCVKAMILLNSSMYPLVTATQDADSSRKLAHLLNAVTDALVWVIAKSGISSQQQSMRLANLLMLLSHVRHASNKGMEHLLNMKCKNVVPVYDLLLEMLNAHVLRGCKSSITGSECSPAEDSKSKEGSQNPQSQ

SMILES: CSc1ccc(S(=O)(=O)Nc2c(C)cccc2C)cc1
- IC50 (Estrogen receptor): > 50 µM (not active)

SMILES: Cc1cnc(C(=O)OCC(=O)c2csc(N3CCCCC3)n2)cn1
- IC50 (Estrogen receptor beta): 5.81 µM (active)

SMILES: CN(C)c1ccc(NC(=O)Nc2cccc3ccccc23)cc1
- IC50 (NADPH oxidase 1): 0.464 µM (active)

SMILES: CCN(CC)c1ccc(NC(=O)Nc2ccccc2C(F)(F)F)cc1
- IC50 (NADPH oxidase 1): 0.354 µM (active)
- EC50 [1]: > 50 µM (not active)

SMILES: CCN(c1ccccc1)S(=O)(=O)c1ccc(C(=O)NNC(=O)c2ccccc2F)cc1
- CC50 [2]: 23.5 µM (active)

SMILES: COc1cc(CNCCc2ccc(F)cc2)ccc1OCc1ccc(Cl)nc1
- EC50 [3]: 1.88 µM (active)
- CC50 [4]: 26.1 µM (active)

SMILES: CCOC(=O)c1ccc(N/C=C2\CCCCC2=O)cc1
- EC50 [5]: > 300 µM (not active)
- IC50 [6]: > 100 µM (active)
- EC50 [7]: > 300 µM (not active)

SMILES: CCn1c2ccccc2c2nnc(SCC(=O)Nc3ccc4c(c3)OCO4)nc21
- IC50 (Estrogen receptor): > 50 µM (not active)

SMILES: O=C(Cc1c[nH]c2ccccc12)Nc1nc2ccccc2[nH]1
- EC50 [1]: > 50 µM (not active)
- EC50 [8]: 6.91 µM (active)

SMILES: Cc1ccccc1OCC(=O)Nc1ccccc1N1CCOCC1
- EC50 (Ion channel NompC): > 29.9 µM (not active)
- EC50 (Mucolipin-3): 5.08 µM (active)

SMILES: Cc1nc(NC(=O)CSc2nnc(-c3ccc4c(c3)OCO4)o2)c(Cl)cc1Cl
- IC50 [6]: > 100 µM (active)

SMILES: CCOc1ccc(Nc2nnc(SCc3nc(O)c4ccccc4n3)s2)cc1
- IC50 [9]: 29.2 µM (not active)
- IC50 [10]: > 111 µM (not active)
- IC50 [11]: 27 µM (not active)

SMILES: CC(=O)O/N=C/c1c(N2CCOCC2)n(C)c2ccccc12
- EC50 [12]: > 120 µM (not active)
- CC50 [4]: > 40 µM (active)
- EC50 [13]: > 180 µM (inactive)
- EC50 [14]: 38.6 µM (active)
- EC50 [15]: > 160 µM (inactive)
- EC50 [16]: 0.145 µM (active)
- EC50 [17]: 1.25 µM (active)
- EC50 [18]: > 160 µM (inactive)
- EC50 [19]: > 120 µM (not active)
- EC50 [20]: 4.45 µM (active)

SMILES: C[C@H]1CN([C@@H](C)CO)C(=O)c2ccccc2-c2ccccc2CO[C@H]1CN(C)Cc1ccc(-c2ccccc2)cc1
- AC50 [21]: 3.92 µM (active)
- AC50 [22]: 1.19 µM (active)
- AC50 [23]: 1.59 µM (active)
- AC50 [24]: 1.11 µM (active)
- AC50 [25]: 22.2 µM (active)

SMILES: CC(C)(C)[S@+]([O-])N1Cc2cc(C(=O)NCc3ccccc3F)nc(-c3cccc(-c4ccncc4)c3)c2[C@@H]1CCO
- AC50 [21]: 1.36 µM (active)
- AC50 [22]: 1.93 µM (active)
- AC50 [23]: 1.68 µM (active)
- AC50 [24]: 1.42 µM (active)
- AC50 [25]: 29.1 µM (active)

From ChEMBL document CHEMBL1201862, “PubChem BioAssay data set” (2004)
